Laboratory results: the supplement of paper PMC13380429

How the values were obtained:
[1] = system: A549-ACE2 infected with SARS-CoV-2; assay: cell count relative to DMSO; higher = less toxic; conditions: 24 h
Caco-2 [2] = assay: cell viability relative to DMSO; higher = less toxic; conditions: 72 h
Calu-3 [3] = assay: as above; conditions: 72 h
HepG2 [4] = assay: as above; conditions: 72 h
U2OS [5] = assay: as above; conditions: 72 h
Vero E6 [6] = assay: as above; conditions: 72 h
[7] = system: A549-ACE2 infected with SARS-CoV-2; assay: SARS-CoV-2 infection rate relative to DMSO; higher = more infection; conditions: 24 h
A549-ACE2 = assay: drug-induced phospholipidosis relative to tamoxifen; higher = more phospholipidosis
[8] = system: A549-ACE2 infected with SARS-CoV-2; assay: morphology score (similarity to uninfected cells); higher = more like uninfected cells; conditions: 24 h
Calu-3 [9] = assay: relative viability EC50 (midpoint between 100% and the lowest measured viability); higher = less toxic; conditions: 72 h
U2OS [10] = assay: as above; conditions: 72 h
Vero E6 [11] = assay: as above; conditions: 72 h
Caco-2 [12] = assay: drug sensitivity score (DSS) for viability; higher = more toxic; extreme values may be limits of the assay; conditions: 72 h
Calu-3 [13] = assay: as above; conditions: 72 h
HepG2 [14] = assay: as above; conditions: 72 h
U2OS [15] = assay: as above; conditions: 72 h
Vero E6 [16] = assay: as above; conditions: 72 h
Caco-2 [17] = assay: relative viability EC50 (midpoint between 100% and the lowest measured viability); higher = less toxic; conditions: 72 h
HepG2 [18] = assay: as above; conditions: 72 h

C[S+]([O-])CCCCN=C=S (stereo not drawn) [sulforaphane]
Conditions | SARS-CoV-2 infection rate, [7] [%] | cell count, [1] [%] | cell viability, Caco-2 [2] [%] | cell viability, Calu-3 [3] [%] | cell viability, HepG2 [4] [%] | cell viability, U2OS [5] [%] | cell viability, Vero E6 [6] [%] | morphology score, [8]
1 nM | – | – | 92.1 | 91 | 90.5 | 100 | 103 | –
10 nM | – | – | 107 | 91 | 89.7 | 104 | 108 | –
100 nM | – | – | 104 | 96 | 90.6 | 97.7 | 104 | –
0.3 µM | 95 | 104 | – | – | – | – | – | 0.21
1000 nM | – | – | 91.3 | 108 | 79.8 | 97.9 | 94.6 | –
3 µM | 95 | 99 | – | – | – | – | – | -0.05
10 µM | 79 | 85 | – | – | – | – | – | 0.33
10000 nM | – | – | 70.9 | 97.9 | 72.3 | 77.4 | 90.2 | –
30 µM | 18 | 109 | – | – | – | – | – | 0.82

drug-induced phospholipidosis [%], A549-ACE2
Conditions | 0.3 µM | 0.833333 µM | 3.33333 µM | 6.66667 µM | 10 µM | 30 µM
24 h | 1.81 | -7.24 | -2.29 | 1.54 | 3.49 | 22.7
48 h | 1.78 | -7.01 | -5.48 | -4.04 | -0.65 | 15.9
72 h | -0.306 | -6.99 | -5.48 | -5.9 | -2.75 | 7.99

Conditions | drug sensitivity score | relative viability EC50 [µM]
Caco-2 [12] | 2.5 | –
Calu-3 [9] | – | > 10
Calu-3 [13] | 0 | –
HepG2 [14] | 4.1 | –
U2OS [10] | – | > 10
U2OS [15] | 1.1 | –
Vero E6 [11] | – | > 10
Vero E6 [16] | 0 | –

CN1C(CSCC(F)(F)F)Nc2cc(Cl)c(S(N)(=O)=O)cc2S1(=O)=O (stereo not drawn) [polythiazide]
cell viability [%]
Conditions | Caco-2 [2] | Calu-3 [3] | HepG2 [4] | U2OS [5] | Vero E6 [6]
1 nM | 88.1 | 95.7 | 93.7 | 98.4 | 91.7
10 nM | 90.5 | 98.5 | 110 | 97.5 | 98.8
100 nM | 95.2 | 107 | 99.6 | 104 | 86.6
1000 nM | 94.9 | 101 | 103 | 96.2 | 96.8
10000 nM | 93 | 109 | 106 | 100 | 108

Conditions | drug sensitivity score | relative viability EC50 [µM]
Caco-2 [12] | 0 | –
Caco-2 [17] | – | > 10
Calu-3 [9] | – | > 10
Calu-3 [13] | 0 | –
HepG2 [14] | 0 | –
HepG2 [18] | – | > 10
U2OS [10] | – | > 10
U2OS [15] | 0 | –
Vero E6 [11] | – | > 10
Vero E6 [16] | 0 | –

CS(=O)(=O)N(Cc1ccco1)C[C@@H](O)Cn1c2ccccc2c2ccccc21 [KL-001]
cell viability [%]
Conditions | Caco-2 [2] | Calu-3 [3] | HepG2 [4] | U2OS [5] | Vero E6 [6]
1 nM | 95.6 | 105 | 98.9 | 98.3 | 99
10 nM | 98.5 | 93.2 | 104 | 98.4 | 101
100 nM | 102 | 101 | 97.2 | 99 | 97.6
1000 nM | 94.1 | 115 | 104 | 93.7 | 100
10000 nM | 94.6 | 110 | 106 | 90 | 98

Conditions | drug sensitivity score | relative viability EC50 [µM]
Caco-2 [12] | 0 | –
Caco-2 [17] | – | > 10
Calu-3 [9] | – | > 10
Calu-3 [13] | 0 | –
HepG2 [14] | 0 | –
HepG2 [18] | – | > 10
U2OS [10] | – | > 10
U2OS [15] | 0 | –
Vero E6 [11] | – | > 10
Vero E6 [16] | 0 | –

CCCCOc1ccc(OCCCN2CCOCC2)cc1 [pramoxine]
cell viability [%]
Conditions | Caco-2 [2] | Calu-3 [3] | HepG2 [4] | U2OS [5] | Vero E6 [6]
1 nM | 105 | 104 | 97.1 | 105 | 103
10 nM | 109 | 99.1 | 98.3 | 105 | 97.3
100 nM | 97.8 | 87.1 | 98.1 | 104 | 98.8
1000 nM | 95.8 | 95.1 | 94.7 | 102 | 102
10000 nM | 98 | 102 | 98.9 | 99.3 | 103

Conditions | drug sensitivity score | relative viability EC50 [µM]
Caco-2 [12] | 0 | –
Caco-2 [17] | – | > 10
Calu-3 [9] | – | > 10
Calu-3 [13] | 0 | –
HepG2 [14] | 0 | –
HepG2 [18] | – | > 10
U2OS [10] | – | > 10
U2OS [15] | 0 | –
Vero E6 [11] | – | > 10
Vero E6 [16] | 0 | –

CC(C(=O)O)c1ccc2c(c1)[nH]c1ccc(Cl)cc12 (stereo not drawn) [carprofen]
cell viability [%]
Conditions | Caco-2 [2] | Calu-3 [3] | HepG2 [4] | U2OS [5] | Vero E6 [6]
1 nM | 96.4 | 96.5 | 103 | 96.5 | 107
10 nM | 96.5 | 95.5 | 101 | 102 | 101
100 nM | 88.4 | 104 | 90.6 | 96.1 | 115
1000 nM | 95.7 | 104 | 96.5 | 100 | 99.4
10000 nM | 94.6 | 94 | 99.6 | 98.7 | 101

Conditions | drug sensitivity score | relative viability EC50 [µM]
Caco-2 [12] | 0 | –
Caco-2 [17] | – | > 10
Calu-3 [9] | – | > 10
Calu-3 [13] | 0 | –
HepG2 [14] | 0 | –
HepG2 [18] | – | > 10
U2OS [10] | – | > 10
U2OS [15] | 0 | –
Vero E6 [11] | – | > 10
Vero E6 [16] | 0 | –

CC(SC(=O)c1cccs1)C(=O)NCC(=O)O (stereo not drawn) [stepronin]
cell viability [%]
Conditions | Caco-2 [2] | Calu-3 [3] | HepG2 [4] | U2OS [5] | Vero E6 [6]
1 nM | 112 | 91.9 | 106 | 96.6 | 109
10 nM | 84.4 | 106 | 102 | 104 | 91.9
100 nM | 96.1 | 97.6 | 105 | 93.5 | 108
1000 nM | 103 | 110 | 88.6 | 99 | 101
10000 nM | 103 | 97.5 | 97 | 97.1 | 98.8

Conditions | drug sensitivity score | relative viability EC50 [µM]
Caco-2 [12] | 0 | –
Caco-2 [17] | – | > 10
Calu-3 [9] | – | > 10
Calu-3 [13] | 0 | –
HepG2 [14] | 0.3 | –
HepG2 [18] | – | > 10
U2OS [10] | – | > 10
U2OS [15] | 0 | –
Vero E6 [11] | – | > 10
Vero E6 [16] | 0 | –
